In patent US8163804B2 (priority 2005, dated 2012):
Like-named read-outs stand apart in the source and are kept apart here.

Columns and labels:
[1] = test system: Turnip Moth (Agrotis segetum); assay: Control test on turnip moth of cabbage, soil treatment, rate of infected stumps after 7 days; format: in vivo; details: 7 days after treatment
Protocol: (§1) Control Test on Turnip Moth (Agrotis segetum) and Clubroot (Plasmodiophora brassicae) of Cabbage due to Soil Treatment
(§2) A powder in a prescribed amount was mixed to soil and cabbages (cultivar: shiki-kaku) cultured on a cell medium were planted out. After 7 days from the treatment, the number of infected stumps due to Agrotis segetum was examined and the rate of infected stumps was calculated. Furthermore, after 60 days from the treatment, stumps were picked out, and lesion formation of Plasmodiophora brassicase was examined according to the degrees of severity. The control value was calculated from the average severity index of each plot according to the following equation. In the Table, gai represents the amount of active ingredients (g).

[2] = test system: Cucumber Moth (Diaphania indica); assay: Insecticidal test on cucumber moth, sprayed cucumber leaves, mortality; format: in vivo; details: for Diaphania indica Mortality (%): 10 ppm
Protocol: (§3) Insecticidal Test on Cucumber Moth (Diaphania indica) and Control Test on Powdery Mildew (Sphaerotheca fuliginea) of Cucumbers
(§4) A liquid chemical which was prepared to the prescribed concentration was sufficiently sprayed on cucumbers (cultivar: sagami-hanpaku) cultured in a greenhouse. After 7 days from spraying, leaves were cut off and put into a plastic cup (diameter: 10 cm, height: 10 cm) along with 5 of second-stage larvae of Diaphania indica, and the mortality was examined 4 days thereafter. Furthermore, 1 day after spraying, the leaves of cucumbers which were previously arranged to be infected by pathogen were uniformly wiped with Sphaerotheca fuliginea thereon using a paintbrush for inoculation and examined after 10 days thereafter. The area occupied by lesion per leaf of cucumber was examined in accordance with the following index, and the control value was calculated from the average severity index of each plot according to the following equation (two replications).

[3] = test system: Clubroot (Plasmodiophora brassicae); assay: Control test on clubroot of cabbage, soil treatment, control value after 60 days; format: in vivo; details: 60 days after treatment
Protocol: as §1, §2
Severity Index • 0: No clubroot attached • 1: Clubroot was attached at a portion of from 1 to 25% of the whole root • 2: Clubroot was attached at a portion of from 25 to 50% of the whole root • 3: Clubroot was attached at a portion of from 50 to 75% of the whole root • 4: Clubroot was attached at a portion of from 75% or more of the whole root Control Value=(1−average severity in the treated plot/average severity in the untreated plot)×100

[4] = test system: Scab (Venturia nashicola); assay: Control test on scab of pear, spray, severity index after 14 days; format: in vivo; details: 14 days after spraying
Protocol: (§5) Control Test on Oriental Fruit Moth (Grapholita molesta) and Scab (Venturia nashicola) of Pear
(§6) A liquid chemical which was prepared to the prescribed concentration was sufficiently sprayed on 17-year-old pears (cultivar: Hosui) (early June). After 40 days from spraying, the number of infected fruits due to Grapholita molesta was examined for all fruit in the plot, and the rate of infected fruit was calculated. Furthermore, after 14 days from spraying, infection of Venturia nashicola was examined by the degrees for optional 200 leaves in the plot and the severity index was calculated according to the following equation. Severity index=Z(number of infected leaves by the degrees×index)×100/(number of examined leaves×5)

[5] = test system: Powdery Mildew (Sphaerotheca fuliginea); assay: Control test on powdery mildew of cucumbers, spray, control value from severity index; format: in vivo
Protocol: as §3, §4
Severity Index • 0: No lesion • 1: Lesion area was not more than 5% • 2: Lesion area was from 6 to 25% • 3: Lesion area was from 26 to 50% • 4: Lesion area was not less than 51% Control Value=(1−average severity in the treated plot/average severity in the untreated plot)×100

[6] = test system: Oriental Fruit Moth (Grapholita molesta); assay: Control test on oriental fruit moth of pear, spray, rate of infected fruit after 40 days; format: in vivo; details: 40 days after spraying
Protocol: as §5, §6

[7] = test system: Common Straight Swift Butterfly (Parnara guttata); assay: Control test on common straight swift butterfly of paddy rice, powder spray, number of insects after 20 days (Test Example 8); format: in vivo; details: 20 days after spraying
[8] = test system: Small Brown Planthopper (Laodelphax striatellus); assay: Insecticidal test on small brown planthopper, sprayed rice seedlings, mortality after 6 days; format: in vivo; details: 3 ppm, sprayed rice seedlings, 6 days after treatment
Protocol: Insecticidal Test on Small Brown Planthopper (Laodelphax striatellus)
A liquid chemical which was diluted and prepared to the prescribed concentration was sprayed on rice seedlings (cultivar: koshihikari), air-dried, and then 10 three-stage insects of Laodelphax striatellus were put into a glass test tube having a diameter of 3 cm and a height of 10 cm along with the seedlings. The test tube was cotton plugged. After 6 days from the treatment, the number of surviving insects was examined and the mortality was calculated (two replications of 10 insects per plot).

[9] = test system: Green Peach Aphid (Myzus persicae); format: in vivo; details: 3 ppm, foliar spray on eggplant, 5 days after spraying
[10] = test system: Resistant Cotton Melon Aphid (Aphis gossypii); format: in vivo; details: 3 ppm, foliar spray on cucumber, 5 days after spraying
[11] = test system: 2-spotted Spider Mite (Tetranychus urticae); assay: Insecticidal test on 2-spotted spider mite, kidney bean leaf disc with eggs, hatchability of larvae after 6 days; format: in vivo; details: 50 ppm; 6 days after spraying
Protocol: Insecticidal Test on 2-spotted Spider Mite (Tetranychus urticae)
A plastic cup having a diameter of 8 cm was filled with water and covered by a lid with a hole having a diameter of 1 cm. Absorbent cotton was put on the top of the lid and dropped into water from the lid such that the absorbent cotton was always in a wet state due to a capillary phenomenon. A leaf disc having a diameter of 2 cm was prepared with primary leaves of kidney beans (cultivar: Green top) and placed on the aforementioned absorbent cotton. 4 adult female insects of Tetranychus urticae were inoculated thereon. Next day, the adult female insects were removed, and then the number of insect egg was examined. A liquid chemical which was prepared to the prescribed concentration was sprayed by using a vertical sprayer. After spraying, the resulting cup was allowed to stand in an isothermal chamber maintained at 25 degree centigrade. After 6 days from spraying, the number of hatched larvae that survived on the leaf disc was examined and the hatchability of larvae was calculated (two replications of one concentration per chemical).

[12] = test system: Rice Blast (Pyricularia oryzae); format: in vivo
[13] = test system: Tiger Moth (Trichoplusia ni); assay: Insecticidal test on tiger moth, cabbage leaf dip, mortality after 6 days; format: in vivo; details: 0.5 ppm; 6 days after treatment
Protocol: Insecticidal Test on Tiger Moth (Trichoplusia ni)
Cut leaves of cabbages (cultivar: shiki-kaku) were immersed in a liquid chemical which was diluted and prepared to the prescribed concentration for 30 seconds, air-dried, and then put into a plastic vessel having a diameter of 9 cm. Each of 10 second-stage insects of Trichoplusia ni was inoculated and the resulting vessel was allowed to stand in an isothermal chamber maintained at 25 degree centigrade. After 6 days from the treatment, the number of surviving insects was examined and the mortality was calculated (two replications of 10 insects per plot).

[14] = test system: Common Straight Swift Butterfly (Parnara guttata); assay: Control test on common straight swift butterfly of paddy rice, powder spray, number of insects after 20 days (Test Example 9); format: in vivo; details: 20 gai/10a; 20 days after spraying
Source text: (§7) Control Test on Common Straight Swift Butterfly (Parnara guttata) and Sheath Blight (Rhizoctonia solani) of Paddy Rice
(§8) A powder of a prescribed amount was sprayed on rice (cultivar: koshihikari) after 70 days from the transplantation (middle of May) Leaves on which Parnara guttata was parasitic before spraying were eliminated. After 20 days from spraying, the number of insects was examined for 100 stumps in each plot. Furthermore, 7 days before spraying, Rhizoctonia solani cultured on a bran medium was inoculated into the base of the plant. After 30 days from spraying, the number of infected stumps was examined for 100 stumps in each plot and the rate of infected stumps was calculated. In the Table, gai represents the amount of active ingredients (g).

[15] = test system: Sheath Blight (Rhizoctonia solani); assay: Control test on sheath blight of paddy rice, powder spray, rate of infected stumps after 30 days; format: in vivo; details: 20 gai/10a; 30 days after spraying
Source text: as §7, §8

[16] = test system: Rice Striped Stem Borer (Chilo suppressalis); details: 5 gai/box
[17] = test system: Small Brown Planthopper (Laodelphax striatellus); assay: Control test on small brown planthopper, nursery box application of paddy rice, number of parasitic insects after 40 and 60 days; format: in vivo
Protocol: (§9) Control Test on Small Brown Planthopper (Laodelphax striatellus) and Rice Leafroller (Cnaphalocrocis medinalis) on Nursery Box Application of Paddy Rice
(§10) Rice (cultivar: Nihonbare) cultured in a nursery box was treated with 50 g of a granule formulation per box, and then transplanted to the rice field. For the control effect against Laodelphax striatellus, the number of parasitic insects was examined for 30 stumps per plot after 40 days and 60 days from the transplantation. In addition, for the control effect against Cnaphalocrocis medinalis, the number of infected leaves was examined for 100 stumps per plot after 50 days from the transplantation, and the infected leaf rate was calculated. In the Table, gai represents the amount of active ingredients (g).

[18] = test system: Rice Leafroller (Cnaphalocrocis medinalis); assay: Control test on rice leafroller, nursery box application of paddy rice, infected leaf rate after 50 days; format: in vivo; details: 50 days after transplantation
Protocol: as §9, §10

[19] = test system: Rice Blast (Pyricularia oryzae); format: in vivo; details: in vivo

CCCc1cc(C(F)(C(F)(F)F)C(F)(F)F)cc(Br)c1NC(=O)c1cccc(NC(=O)c2ccccc2)c1 [Compound 178]
Agrotis segetum Infected stump rate (%) ([1]; 100 gai/10a): 5.6% | Diaphania indica Mortality (%) [2]: 90% | Plasmodiophora brassicae Control value ([3]; 100 gai/10a): 5 | Venturia nashicola Severity index ([4]; 50 ppm): 51.5 | Sphaerotheca fuliginea Control value ([5]; 10 ppm): 0 | Grapholita molesta Infected fruit rate (%) ([6]; 50 ppm): 3.4%

O=C(Nc1cccc(C(=O)Nc2c(Br)cc(C(F)(C(F)(F)F)C(F)(F)F)cc2SC(F)(F)F)c1)c1ccccc1 [Compound 210]
Number (insects/100 stumps) ([7]; 20 gai/10a): 1 insects/100 stumps | Agrotis segetum Infected stump rate (%) ([1]; 100 gai/10a): 2.8% | Diaphania indica Mortality (%) [2]: 95% | Mortality (%) [8]: 15% | Plasmodiophora brassicae Control value ([3]; 100 gai/10a): 0 | Venturia nashicola Severity index ([4]; 50 ppm): 50.6 | Sphaerotheca fuliginea Control value ([5]; 10 ppm): 0 | Control rate (%) [9]: 7% | Control rate (%) [10]: 12% | Hatchability of larvae (%) [11]: 80% | Pyricularia oryzae Control value ([12]; in vivo): 3 | Mortality (%) [13]: 70% | Number of insects (number/100 stumps) [14]: 1 number/100 stumps | Rate of infected stumps (%) [15]: 98% | Grapholita molesta Infected fruit rate (%) ([6]; 50 ppm): 1.7%

Cc1cc(C(F)(C(F)(F)F)C(F)(F)F)cc(C)c1NC(=O)c1cccc(N(C)C(=O)c2cccnc2F)c1F [Compound 1246]
Chilo suppressalis Mortality (%) [16]: 95% | Laodelphax striatellus Number of parasitic insects/30 stumps ([17]; 5 gai/box, 40 days): 77 insects/30 stumps | Laodelphax striatellus Number of parasitic insects/30 stumps ([17]; 5 gai/box, 60 days): 137 insects/30 stumps | Cnaphalocrocis medinalis Infected leaf rate (%) ([18]; 5 gai/box): 0.28% | Pyricularia oryzae Control value [19]: 0

Cc1cc(C(F)(C(F)(F)F)C(F)(F)F)cc(C)c1NC(=O)c1cccc(N(C)C(=O)c2ccc(Cl)nc2)c1F [Compound 1247]
Mortality (%) [8]: 5% | Laodelphax striatellus Number of parasitic insects/30 stumps ([17]; 5 gai/box, 40 days): 69 insects/30 stumps | Laodelphax striatellus Number of parasitic insects/30 stumps ([17]; 5 gai/box, 60 days): 121 insects/30 stumps | Control rate (%) [9]: 6% | Cnaphalocrocis medinalis Infected leaf rate (%) ([18]; 5 gai/box): 0.25% | Control rate (%) [10]: 10% | Hatchability of larvae (%) [11]: 74% | Mortality (%) [13]: 65%

Cc1cc(C(F)(C(F)(F)F)C(F)(F)F)cc(C)c1NC(=O)c1cccc(NC(=O)c2ccccc2)c1F [Compound No. 601, N-(2,6-dimethyl-4-heptafluoroisopropyl)phenyl 3-(benzoylamino)-2-fluorobenzamide]
Number (insects/100 stumps) ([7]; 20 gai/10a): 1 insects/100 stumps | Agrotis segetum Infected stump rate (%) ([1]; 100 gai/10a): 2.8% | Diaphania indica Mortality (%) [2]: 95% | Plasmodiophora brassicae Control value ([3]; 100 gai/10a): 0 | Venturia nashicola Severity index ([4]; 50 ppm): 53.0 | Sphaerotheca fuliginea Control value ([5]; 10 ppm): 0 | Pyricularia oryzae Control value ([12]; in vivo): 7 | Number of insects (number/100 stumps) [14]: 2 number/100 stumps | Rate of infected stumps (%) [15]: 96% | Grapholita molesta Infected fruit rate (%) ([6]; 50 ppm): 2.3%

Cc1cc(C(F)(C(F)(F)F)C(F)(F)F)cc(C)c1NC(=O)c1cccc(NC(=O)c2cccnc2Cl)c1F [compound 639]
Chilo suppressalis Mortality (%) [16]: 90% | Mortality (%) [8]: 0% | Laodelphax striatellus Number of parasitic insects/30 stumps ([17]; 5 gai/box, 40 days): 65 insects/30 stumps | Laodelphax striatellus Number of parasitic insects/30 stumps ([17]; 5 gai/box, 60 days): 120 insects/30 stumps | Control rate (%) [9]: 10% | Cnaphalocrocis medinalis Infected leaf rate (%) ([18]; 5 gai/box): 0.39% | Control rate (%) [10]: 12% | Hatchability of larvae (%) [11]: 82% | Pyricularia oryzae Control value [19]: 3 | Mortality (%) [13]: 80%

CC(Oc1ccc(Cl)cc1Cl)C(=O)NC(C)(C#N)C(C)C (stereo not drawn) [fenoxanil]
Number (insects/100 stumps) ([7]; 40 gai/10a): 155 insects/100 stumps | Pyricularia oryzae Control value ([12]; 40 gai/10a, panicle blast, 30 days after spraying): 88

O=[N+]([O-])c1ccc(NS(=O)(=O)c2ccc(Cl)c(C(F)(F)F)c2)c(Cl)c1 [flusulfamide]
Agrotis segetum Infected stump rate (%) ([1]; 60 gai/10a): 36.1% | Plasmodiophora brassicae Control value ([3]; 60 gai/10a): 91

O=C1OCc2c(Cl)c(Cl)c(Cl)c(Cl)c21 [fthalide]
Number (insects/100 stumps) ([7]; 100 gai/10a): 150 insects/100 stumps | Pyricularia oryzae Control value ([12]; 100 gai/10a, panicle blast, 30 days after spraying): 90

O=[N+]([O-])NC1=NCCN1Cc1ccc(Cl)nc1 [imidacloprid]
Laodelphax striatellus Number of parasitic insects/30 stumps ([17]; 1 gai/box, 40 days): 0 insects/30 stumps | Laodelphax striatellus Number of parasitic insects/30 stumps ([17]; 1 gai/box, 60 days): 9 insects/30 stumps | Cnaphalocrocis medinalis Infected leaf rate (%) ([18]; 1 gai/box): 1.77%

C[C@H]1O[C@H](O[C@H]2[C@H](O)[C@@H](O)[C@@H](O)[C@H](O)[C@@H]2O)[C@@H](N)C[C@@H]1NC(=N)C(=O)O [kasugamycin]
Number (insects/100 stumps) ([7]; 12 gai/10a): 162 insects/100 stumps | Pyricularia oryzae Control value ([12]; 12 gai/10a, panicle blast, 30 days after spraying): 91

CC(C)CC(C)c1sccc1NC(=O)c1cn(C)nc1C(F)(F)F (stereo not drawn) [penthiopyrad]
mortality at 3.15 ppm ([2]; Diaphania indica, 3.15 ppm): 0% | Venturia nashicola Severity index ([4]; 75 ppm): 3.7 | Sphaerotheca fuliginea Control value ([5]; 3.15 ppm): 95 | Grapholita molesta Infected fruit rate (%) ([6]; 75 ppm): 19.8%
